In PubChem BioAssay (NCI):
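GI50 is the concentration that inhibits growth by half. TGI: total growth inhibition.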

Experiments:
Assay in all cases: inhibition of tumour cell growth, NCI panel, 384-well format
[1] = tested on: 786-0 renal
[2] = tested on: A498 renal
[3] = tested on: A549 NSCLC
[4] = tested on: ACHN renal
[5] = tested on: BT-549 breast
[6] = tested on: CAKI-1 renal
[7] = tested on: CCRF-CEM leukemia
[8] = tested on: COLO 205 colon
[9] = tested on: DU-145 prostate
[10] = tested on: EKVX NSCLC
[11] = tested on: HCC-2998 colon
[12] = tested on: HCT-15 colon
[13] = tested on: HL-60(TB) leukemia
[14] = tested on: HOP-62 NSCLC
[15] = tested on: HOP-92 NSCLC
[16] = tested on: HS 578T breast
[17] = tested on: HT29 colon
[18] = tested on: IGROV1 ovarian
[19] = tested on: KM12 colon
[20] = tested on: M14 melanoma
[21] = tested on: MALME-3M melanoma
[22] = tested on: MCF7 breast
[23] = tested on: MDA-MB-231 breast
[24] = tested on: MDA-MB-435 melanoma
[25] = tested on: MDA-MB-468 breast
[26] = tested on: MOLT-4 leukemia
[27] = tested on: NCI-H226 lung
[28] = tested on: NCI-H23 lung
[29] = tested on: NCI-H322M lung
[30] = tested on: NCI-H460 NSCLC
[31] = tested on: NCI-H522 lung
[32] = tested on: NCI/ADR-RES ovarian
[33] = tested on: OVCAR-3 ovarian
[34] = tested on: OVCAR-4 ovarian
[35] = tested on: OVCAR-5 ovarian
[36] = tested on: OVCAR-8 ovarian
[37] = tested on: PC-3 prostate
[38] = tested on: RPMI-8226 leukemia
[39] = tested on: RXF 393 renal
[40] = tested on: SF-268 CNS
[41] = tested on: SF-295 CNS
[42] = tested on: SF-539 CNS
[43] = tested on: SK-MEL-2 melanoma
[44] = tested on: SK-MEL-28 melanoma
[45] = tested on: SK-MEL-5 melanoma
[46] = tested on: SK-OV-3 ovarian
[47] = tested on: SN12C renal
[48] = tested on: SNB-19 CNS
[49] = tested on: SNB-75 CNS
[50] = tested on: SR leukemia
[51] = tested on: SW-620 colon
[52] = tested on: T-47D breast
[53] = tested on: TK-10 renal
[54] = tested on: U251 glioblastoma
[55] = tested on: UACC-257 melanoma
[56] = tested on: UACC-62 melanoma

Structure (SMILES): N[C@H]1C[C@@H]1c1ccc(-c2cccc(O)c2)cc1
- GI50 [1]: 30.1 µM
- TGI [1]: > 100 µM
- GI50 [2]: 20.3 µM
- TGI [2]: 60.3 µM
- GI50 [3]: 44.9 µM
- TGI [3]: > 100 µM
- GI50 [4]: 27 µM
- TGI [4]: 61.7 µM
- GI50 [5]: 19.5 µM
- TGI [5]: 48.8 µM
- GI50 [6]: 24.6 µM
- TGI [6]: 50.9 µM
- GI50 [7]: 15 µM
- TGI [7]: 28.4 µM
- GI50 [8]: 43.9 µM
- TGI [8]: > 100 µM
- GI50 [9]: 48.7 µM
- TGI [9]: > 100 µM
- GI50 [10]: 30.8 µM
- TGI [10]: > 100 µM
- GI50 [11]: 18.4 µM
- TGI [11]: 38.7 µM
- GI50 [12]: 26.7 µM
- TGI [12]: 68 µM
- GI50 [13]: 14.3 µM
- TGI [13]: 27.5 µM
- GI50 [14]: 17 µM
- TGI [14]: 45 µM
- GI50 [15]: 29.4 µM
- TGI [15]: 72.9 µM
- GI50 [16]: 16.9 µM
- TGI [16]: 34.5 µM
- GI50 [17]: 24.6 µM
- TGI [17]: 64.3 µM
- GI50 [18]: 44.1 µM
- TGI [18]: > 100 µM
- GI50 [19]: 20.1 µM
- TGI [19]: 37.8 µM
- GI50 [20]: 20.1 µM
- TGI [20]: 36.5 µM
- GI50 [21]: 16.8 µM
- TGI [21]: 31.1 µM
- GI50 [22]: 36 µM
- TGI [22]: > 100 µM
- GI50 [23]: 21.1 µM
- TGI [23]: 50.3 µM
- GI50 [24]: 20.9 µM
- TGI [24]: 46.4 µM
- GI50 [25]: 4.18 µM
- TGI [25]: 20.1 µM
- GI50 [26]: 14.7 µM
- TGI [26]: 28 µM
- GI50 [27]: 30.3 µM
- TGI [27]: 96.1 µM
- GI50 [28]: 23.3 µM
- TGI [28]: 65.6 µM
- GI50 [29]: 74.5 µM
- TGI [29]: > 100 µM
- GI50 [30]: 18.1 µM
- TGI [30]: 34.6 µM
- GI50 [31]: 17.9 µM
- TGI [31]: 36.6 µM
- GI50 [32]: 38.8 µM
- TGI [32]: > 100 µM
- GI50 [33]: 40.6 µM
- TGI [33]: > 100 µM
- GI50 [34]: 39.2 µM
- TGI [34]: > 100 µM
- GI50 [35]: 30.4 µM
- TGI [35]: > 100 µM
- GI50 [36]: 31.8 µM
- TGI [36]: 99.8 µM
- GI50 [37]: 29.6 µM
- TGI [37]: 95.1 µM
- GI50 [38]: 18.4 µM
- TGI [38]: 34.9 µM
- GI50 [39]: 22 µM
- TGI [39]: 46.3 µM
- GI50 [40]: 36.6 µM
- TGI [40]: > 100 µM
- GI50 [41]: 33.9 µM
- TGI [41]: > 100 µM
- GI50 [42]: 24.6 µM
- TGI [42]: 63.1 µM
- GI50 [43]: 32.5 µM
- TGI [43]: 48.8 µM
- GI50 [44]: 22.5 µM
- TGI [44]: 43.9 µM
- GI50 [45]: 14.1 µM
- TGI [45]: 27.2 µM
- GI50 [46]: 20 µM
- TGI [46]: 48.8 µM
- GI50 [47]: 44.7 µM
- TGI [47]: > 100 µM
- GI50 [48]: 42.8 µM
- TGI [48]: > 100 µM
- GI50 [49]: 18.9 µM
- TGI [49]: 59.4 µM
- GI50 [50]: 18.8 µM
- TGI [50]: 33.1 µM
- GI50 [51]: 22.5 µM
- TGI [51]: 43.5 µM
- GI50 [52]: 19.2 µM
- TGI [52]: 38.4 µM
- GI50 [53]: 31.5 µM
- TGI [53]: 93.3 µM
- GI50 [54]: 24.1 µM
- TGI [54]: 55.5 µM
- GI50 [55]: 19.2 µM
- TGI [55]: 34.4 µM
- GI50 [56]: 18.7 µM
- TGI [56]: 40.8 µM
